Experimental data reported in patent US6787569B1, “Therapeutic guanidines” (Cambridge NeuroScience, Inc., priority 1994, dated 2004).
Structures can show the parent of a compound that is named as a salt.

Test system: depolarization-induced 3H-glutamate release from brain nerve terminals
Assay: Inhibition of 3H-glutamate release, high [K+] depolarization, rapid superfusion of synaptosomes
Type: biochemical
Details: rat brain synaptosomes; for % Inhibition of ^3H-Glu Rel @ 0.3 μM: 0.3 μM compound; for % Inhibition of ^3H-Glu Rel @ 1 μM: 1 μM compound; for % Inhibition of ^3H-Glu Rel @ 3 μM: 3 μM compound; for % Inhibition of ^3H-Glu Rel @ 0.1 μM: 0.1 μM compound

Compound	% Inhibition of ^3H-Glu Rel @ 0.3 μM	% Inhibition of ^3H-Glu Rel @ 1 μM	further results
CN(C(=N)Nc1cccc(OCc2ccccc2)c1)c1ccc(OCc2ccccc2)cc1 [N-(3-benzyloxyphenyl)-N′-(4-benzyloxyphenyl)-N′-methylguanidine]	55%		
Cl.N=C(N)N(Cc1cccc(Oc2ccccc2)c1)c1ccc2c3c(cccc13)CC2 [Example 53, N-(5-Acenaphthyl)-N-(3-phenoxybenzyl)guanidine.HCl]		37%	
CS(=O)(=O)O.N=C(Nc1ccc2c3c(cccc13)CC2)N1CCCc2ccccc21 [Example 7, N-(5-Acenaphthyl)-N′-(1,2,3,4-tetrahydroquinolinyl)guanidine.mesylate]		20%	% Inhibition of ^3H-Glu Rel @ 3 μM: 16%
CC(C)(C)c1ccc(COc2cccc(NC(=N)Nc3ccc(C(C)(C)C)cc3)c2)cc1.CS(=O)(=O)O [Example 99, N-(3-(4-tert-Butylbenzyloxy)phenyl)-N′-(4-tert-butylphenyl)guanidine.mesylate]	20%		
CCC(C)c1ccc(N(Cc2ccc(C(C)(C)C)cc2)C(=N)N2CCC(Cc3ccccc3)CC2)cc1.CS(=O)(=O)O (stereo not drawn) [Example 78]	22%		
CN(C(=N)Nc1ccc(C(C)(C)C)cc1)c1ccc(OCc2ccccc2)cc1.CS(=O)(=O)O [Example 95, N-Methyl-N-4-benzyloxyphenyl-N′-(4-tert-butylphenyl)guanidin.mesylat]	44%	100%	
N=C(N)N(Cc1ccc(OC(F)(F)F)cc1)c1ccc2c3c(cccc13)CC2 [Example 59, N-(5-Acenaphthyl)-N-(4-trifluaromethoxybenzyl)guanidine.HCl]		44%	
CCCCOc1ccc(NC(=N)Nc2ccc(C(C)(C)C)cc2)cc1OCCCC.O=C(O)C(=O)O [Example 107, N-(3,4-Bis-butyloxyphenyl)-N′-(4-tert-butylphenyl)guanidine.oxalate]	34%		
CCCCCCc1ccc(N(Cc2ccc(C(C)(C)CCC)cc2)C(=N)Nc2ccccc2)cc1.Cl [Example 90, N-(4-Hexylphenyl)-N-(4-tert-hexylbenzyl)-N′-phenylguanidine.HCl]	42%		
CN(C(=N)Nc1ccc(OCc2ccccc2)cc1)c1ccc(OCc2ccccc2)cc1.CS(=O)(=O)O [Example 132, N,N′-Bis(4-benzyloxyphenyl)-N′-methylguanidine.mesylate]	22%		
Cl.N=C(N)N(Cc1ccc(OCc2ccccc2)cc1)c1ccc(OCc2ccccc2)cc1 [Example 67, N-(4-Benzyloxyphenyl)-N-(4-benzyloxybenzyl)guanidine.HCl]		36%	
N-(5-Acenaphthyl)-N′-((4-tert-butylphenyl)-(4-sec-butylphenyl)-N′-methylguanidine.HCl [Example 60]			% Inhibition of ^3H-Glu Rel @ 3 μM: 32%
CCOc1ccc(Cc2cccc(CCNC(=N)Nc3ccc(C(C)(C)C)cc3)c2)cc1.CS(=O)(=O)O [Example 97, N-(3-(1-(4′-Ethoxy)benzyl)phenethyl)-N′-(4-tert-butylphenyl)guanidine.mesylate]	31%		
CCCCOc1ccc(N(Cc2ccc(C(C)(C)C)cc2)C(=N)NC2CCNCC2)cc1.Cl [Example 77, N-(4-Butoxyphenyl)-N-(4-tert-butylbenzyl)-N′-(4-piperidinyl)guanidine.HCl]	44%		
CCC(C)c1ccc(N(C)C(=N)N(Cc2ccc(C(C)(C)C)cc2)c2ccc(C(C)(C)C)cc2)cc1.Cl (stereo not drawn) [Example 83, N-(4-tert-Butylphenyl)-N-(4-tert-butylbenzyl)-N′-(4-sec-butylphenyl)-N′-(methyl)guanidine.HCl]	31%	63%	
CCC(C)c1ccc(N(Cc2ccc(C(C)(C)C)cc2)C(=N)N(C)c2ccccc2)cc1.Cl (stereo not drawn) [Example 88, N-(4-sec-Butylphenyl)-N-(4-tert-butylbenzyl)-N′-(phenyl)-N′-methylguanidine.HCl]	77%		
Br.CCC(C)c1cccc(NC(=N)Nc2cccc(C(C)CC)c2)c1 (stereo not drawn) [Example 34, N,N′-Bis-(3-sec-butylphenyl)guanidine.HBr]		63%	
CCC(C)c1cccc(N(Cc2ccc(C(C)(C)C)cc2)C(=N)N)c1.Cl (stereo not drawn) [Example 62, N-(3-sec-Butylphenyl)-N-(4-tert-butylbenzyl)guanidine.HCl]		22%	
CCC(C)c1ccc(N(Cc2ccc(C(C)(C)C)cc2)C(=N)Nc2ccc(Cl)c(Cl)c2)cc1.Cl (stereo not drawn) [Example 89, N-(4-sec-Butylphenyl)-N-(4-tert-butylbenzyl)-N′-(3,4-dichlorophenyl)guanidine.HCl]	21%		
CCCCCCc1ccc(NC(=N)Nc2ccc(CCCCCC)cc2)cc1.CS(=O)(=O)O [Example 96, N,N′-Bis-(4-Hexylphenyl)guanidine.mesylate]	54%		% Inhibition of ^3H-Glu Rel @ 0.1 μM: 54%
CCCC(Cc1ccccc1)c1cccc(NC(=N)Nc2ccc(C(C)(C)C)cc2)c1.CS(=O)(=O)O (stereo not drawn) [Example 100, N-(3-(1′-Benzylbutyl)phenyl)-N′-(4-tert-butylphenyl)guanidine.mesylate]	20%		

Compound	% Inhibition of ^3H-Glu Rel @ 0.3 μM	% Inhibition of ^3H-Glu Rel @ 1 μM	further results
N=C(Nc1ccc(OCc2ccccc2)cc1)Nc1ccc(SCc2ccccc2)cc1 [N-(4-benzyloxyphenyl)-N′-(4-benzylthiophenyl)guanidine]	81%		
CCC(C)c1ccc(N(Cc2ccc(OCc3ccccc3)cc2)C(=N)N)cc1.Cl (stereo not drawn) [Example 66, N-(4-sec-Butylphenyl)-N-(4-benzyloxybenzyl)guanidine.HCl]		54%	
CN(C(=N)Nc1ccc(OCc2ccccc2)cc1)c1ccc(C(C)(C)C)cc1.CS(=O)(=O)O [Example 98, N-(4-Benzyloxyphenyl)-N′-methyl-N′-(4-tert-butylphenyl)guanidine.mesylate]	28%		
Br.N=C(Nc1ccc(Oc2ccccc2)cc1)Nc1ccc(Oc2ccccc2)cc1 [Example 138, N,N′-Bis(4-phenoxyphenyl)guanidine.HBr]	57%		
CCC(C)c1ccc(N(Cc2ccc(C(C)(C)C)cc2)C(=N)Nc2ccc(OCc3ccccc3)cc2)cc1.CS(=O)(=O)O (stereo not drawn) [Example 91, N-(4-sec-Butylphenyl)-N-(4-tert-butylbenzyl)-N′-(4-benzyloxyphenyl)guanidine.mesylate]	49%		
CN(C(=N)Nc1cccc(OCc2ccccc2)c1)c1cccc(OCc2ccccc2)c1.Cl [Example 141, N,N′-Bis(3-benzyloxyphenyl)-N′-methylguanidine.HCl]	67%		
Br.N=C(Nc1cccc(-c2ccccc2)c1)Nc1cccc(-c2ccccc2)c1 [Example 30, N,N′-Bis(3-biphenyl)guanidine.HBr]		25%	
Br.CCCCOc1cc(NC(=N)Nc2ccc(OC)c(OCCCC)c2)ccc1OC [Example 109, N,N′-Bis-((3-butoxy-4-methoxy)phenyl)guanidine.HBr]	86%		
Br.CN(C(=N)N(C)c1ccc(C(C)(C)C)cc1)c1ccc(C(C)(C)C)cc1 [Example 36, N,N′-Bis(4-tert-butylphenyl)-N,N′-methylguanidine.HBr]			% Inhibition of ^3H-Glu Rel @ 1 μM (1 µM): 67%
CS(=O)(=O)O.N=C(Nc1ccc(N=Nc2ccccc2)cc1)Nc1cccc(OCc2ccccc2)c1 [Example 140, N-(3-Benzyloxyphenyl)-N′-(4-phenylazophenyl)guanidine.mesylate]	44%		
CCC(C)c1ccc(N(Cc2ccc(C(C)(C)C)cc2)C(=N)Nc2ccccc2)cc1.Cl (stereo not drawn) [Example 85, N-(4-sec-Butylphenyl)-N-(4-tert-butylbenzyl)-N′-(phenyl)guanidine.HCl]	55%	100%	
Cl.N=C(Nc1ccc2c3c(cccc13)CC2)NC(Cc1ccccc1)c1ccccc1 (stereo not drawn) [Example 41, N-(5-Acenaphthyl)-N′-(1,2-diphenylethyl)guanidine.HCl]		52%	
Cl.N=C(N)N(Cc1cccc(OCc2ccccc2)c1)c1ccc2c3c(cccc13)CC2 [Example 68, N-(5-Acenaphthyl)-N-(3-benzyloxybenzyl)guanidine.HCl]		76%	
CN(C(=N)N(C)c1ccc(C(C)(C)C)cc1)c1ccc(C(C)(C)C)cc1.Cl [Example 102, N,N′-Bis-(4-tert-butylphenyl)-N,N′-dimethylguanidine.HCl]	73%		% Inhibition of ^3H-Glu Rel @ 0.1 μM: 18%
CC(Cc1ccc(Cl)cc1)NC(=N)Nc1ccc2c3c(cccc13)CC2.Cl (stereo not drawn) [Example 40, N-(5-Acenaphthyl)-N′-(1-methyl-2-(4-chlorophenyl)ethyl)guanidine.HCl]	46%	64%	
CC(C)(C)c1ccc(CN(C(=N)N)c2cccc3ccccc23)cc1.Cl [Example 47, N-(1-Naphthyl)-N-4(tert-butylbenzyl)guanidine.HCl]		40%	
CCCCc1ccc(NC(=N)N(CCCC)c2ccc(CCCC)cc2)cc1.Cl [Example 105, N,N′-Bis-(4-butylphenyl)-N-butylguanidine.HCl]	86%		% Inhibition of ^3H-Glu Rel @ 0.1 μM: 24%
Cl.N=C(N)N(Cc1ccc(I)cc1)c1ccc2c3c(cccc13)CC2 [Example 58, N-(5-Acenaphthyl)-N-(4-iodobenzyl)guanidine.HCl]		43%	
N-(4-sec-Butylphenyl)-N-(4-tert-butylbenzyl)-N′-piperidinylguanidine.HCl [Example 74]	21%	100%	
Br.CN(C(=N)Nc1ccc(C(C)(C)C)cc1)c1ccc(C(C)(C)C)cc1 [Example 35, N,N′-Bis(4-tert-butylphenyl)-N-methylguanidine.HBr]		61%	
Br.N=C(Nc1ccc2c(c1)CCCC2)Nc1ccc2c(c1)CCCC2 [Example 111, N,N′-Bis-(6-tetralinyl)guanidine.HBr]	61%		
